Assay results: PubChem BioAssay (NCI)
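A five-concentration, 48-hour dose response in 96-well plates underlies each endpoint, interpolated linearly between surrounding concentrations. TGI marks complete inhibition of growth.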

Tests used:
Assay in all cases: inhibition of tumour cell growth, NCI panel, 48 h
[1] = tested on: NCI-H522 lung
[2] = tested on: SNB-78 CNS
[3] = tested on: LOX IMVI melanoma
[4] = tested on: HL-60(TB) leukemia
[5] = tested on: SNB-75 CNS
[6] = tested on: COLO 205 colon
[7] = tested on: SK-MEL-28 melanoma
[8] = tested on: RXF 393 renal
[9] = tested on: IGROV1 ovarian
[10] = tested on: UACC-257 melanoma
[11] = tested on: DMS 114 small cell lung
[12] = tested on: UO-31 renal
[13] = tested on: SK-OV-3 ovarian
[14] = tested on: M14 melanoma
[15] = tested on: OVCAR-8 ovarian
[16] = tested on: SF-268 CNS
[17] = tested on: MOLT-4 leukemia
[18] = tested on: ACHN renal
[19] = tested on: HOP-62 NSCLC
[20] = tested on: NCI-H460 lung
[21] = tested on: LXFL 529 NSCLC
[22] = tested on: MALME-3M melanoma
[23] = tested on: SK-MEL-5 melanoma
[24] = tested on: UACC-62 melanoma
[25] = tested on: A549 NSCLC
[26] = tested on: K-562 leukemia
[27] = tested on: SK-MEL-2 melanoma
[28] = tested on: CCRF-CEM leukemia
[29] = tested on: XF 498 CNS
[30] = tested on: KM20L2 colon
[31] = tested on: RPMI-8226 leukemia
[32] = tested on: SN12C renal
[33] = tested on: EKVX NSCLC
[34] = tested on: DLD-1 colon
[35] = tested on: TK-10 renal
[36] = tested on: KM12 colon
[37] = tested on: SW-620 colon
[38] = tested on: OVCAR-4 ovarian
[39] = tested on: HCC-2998 colon
[40] = tested on: 786-0 renal
[41] = tested on: DMS 273 small cell lung
[42] = tested on: SF-295 CNS
[43] = tested on: OVCAR-3 ovarian
[44] = tested on: SNB-19 CNS
[45] = tested on: NCI-H23 lung
[46] = tested on: CAKI-1 renal
[47] = tested on: HCT-15 colon
[48] = tested on: HOP-92 NSCLC
[49] = tested on: M19-MEL melanoma
[50] = tested on: OVCAR-5 ovarian
[51] = tested on: NCI-H226 lung
[52] = tested on: A498 renal
[53] = tested on: HT29 colon
[54] = tested on: HOP-18 NSCLC
[55] = tested on: U251 CNS
[56] = tested on: SR leukemia
[57] = tested on: HCT-116 colon
[58] = tested on: SF-539 CNS
[59] = tested on: RXF-631 renal

SMILES: COc1cc2c(cc1OC)NC(=O)NC(Cc1ccc3c(c1)OCO3)CC2 (stereo unspecified)
- TGI [1]: 76.2 µM
- TGI [2]: > 100 µM
- TGI [3]: > 100 µM
- TGI [4]: > 100 µM
- TGI [5]: > 100 µM
- TGI [6]: > 100 µM
- TGI [7]: > 100 µM
- TGI [8]: > 100 µM
- TGI [9]: > 100 µM
- TGI [10]: > 100 µM
- TGI [11]: > 100 µM
- TGI [12]: > 100 µM
- TGI [13]: > 100 µM
- TGI [14]: > 100 µM
- TGI [15]: > 100 µM
- TGI [16]: > 100 µM
- TGI [17]: > 100 µM
- TGI [18]: > 100 µM
- TGI [19]: > 100 µM
- TGI [20]: > 100 µM
- TGI [21]: > 100 µM
- TGI [22]: > 100 µM
- TGI [23]: > 100 µM
- TGI [24]: > 100 µM
- TGI [25]: > 100 µM
- TGI [26]: > 100 µM
- TGI [27]: > 100 µM
- TGI [28]: > 100 µM
- TGI [29]: > 100 µM
- TGI [30]: > 100 µM
- TGI [31]: > 100 µM
- TGI [32]: > 100 µM
- TGI [33]: > 100 µM
- TGI [34]: > 100 µM
- TGI [35]: > 100 µM
- TGI [36]: > 100 µM
- TGI [37]: > 100 µM
- TGI [38]: > 100 µM
- TGI [39]: > 100 µM
- TGI [40]: > 100 µM
- TGI [41]: > 100 µM
- TGI [42]: > 100 µM
- TGI [43]: > 100 µM
- TGI [44]: > 100 µM
- TGI [45]: > 100 µM
- TGI [46]: > 100 µM
- TGI [47]: > 100 µM
- TGI [48]: > 100 µM
- TGI [49]: > 100 µM
- TGI [50]: > 100 µM

SMILES: CC1(C)C=N[N+]2(C)C3C=CC(CC3)C12 (stereo unspecified)
- TGI [1]: > 100 µM
- TGI [2]: > 100 µM
- TGI [3]: > 100 µM
- TGI [4]: > 100 µM
- TGI [51]: > 100 µM
- TGI [52]: > 100 µM
- TGI [5]: > 100 µM
- TGI [6]: > 100 µM
- TGI [7]: > 100 µM
- TGI [53]: > 100 µM
- TGI [8]: > 100 µM
- TGI [9]: > 100 µM
- TGI [10]: > 100 µM
- TGI [11]: > 100 µM
- TGI [12]: > 100 µM
- TGI [13]: > 100 µM
- TGI [14]: > 100 µM
- TGI [15]: > 100 µM
- TGI [16]: > 100 µM
- TGI [17]: > 100 µM
- TGI [54]: > 100 µM
- TGI [18]: > 100 µM
- TGI [55]: > 100 µM
- TGI [19]: > 100 µM
- TGI [20]: > 100 µM
- TGI [21]: > 100 µM
- TGI [22]: > 100 µM
- TGI [23]: > 100 µM
- TGI [24]: > 100 µM
- TGI [25]: > 100 µM
- TGI [26]: > 100 µM
- TGI [27]: > 100 µM
- TGI [56]: > 100 µM
- TGI [28]: > 100 µM
- TGI [30]: > 100 µM
- TGI [31]: > 100 µM
- TGI [32]: > 100 µM
- TGI [33]: > 100 µM
- TGI [57]: > 100 µM
- TGI [34]: > 100 µM
- TGI [35]: > 100 µM
- TGI [36]: > 100 µM
- TGI [39]: > 100 µM
- TGI [40]: > 100 µM
- TGI [58]: > 100 µM
- TGI [42]: > 100 µM
- TGI [43]: > 100 µM
- TGI [44]: > 100 µM
- TGI [45]: > 100 µM
- TGI [46]: > 100 µM
- TGI [59]: > 100 µM
- TGI [47]: > 100 µM
- TGI [48]: > 100 µM
- TGI [49]: > 100 µM
- TGI [50]: > 100 µM

SMILES: Cc1cnc2c(c1)C(=O)C1=C(OC(C)(C)CC1O)C2=O (stereo unspecified)
- TGI [1]: 31.4 µM
- TGI [3]: 25.8 µM
- TGI [4]: 26.3 µM
- TGI [51]: 37.5 µM
- TGI [5]: 28.5 µM
- TGI [6]: 32.4 µM
- TGI [7]: 31.1 µM
- TGI [53]: 43.6 µM
- TGI [8]: 29.3 µM
- TGI [9]: 28.9 µM
- TGI [10]: 27 µM
- TGI [11]: 22.4 µM
- TGI [12]: 29.7 µM
- TGI [13]: 36.5 µM
- TGI [14]: 30.5 µM
- TGI [15]: 35.6 µM
- TGI [16]: 37.2 µM
- TGI [17]: 44.3 µM
- TGI [54]: 29.3 µM
- TGI [18]: 29 µM
- TGI [55]: 29.3 µM
- TGI [19]: 34 µM
- TGI [20]: 23.9 µM
- TGI [21]: 29.9 µM
- TGI [22]: 27.6 µM
- TGI [23]: 26.9 µM
- TGI [24]: 12.6 µM
- TGI [25]: 31.9 µM
- TGI [26]: 46.4 µM
- TGI [27]: > 100 µM
- TGI [56]: > 100 µM
- TGI [28]: 51.1 µM
- TGI [29]: 34 µM
- TGI [30]: 32.5 µM
- TGI [31]: 60.6 µM
- TGI [32]: 29.8 µM
- TGI [33]: 36.4 µM
- TGI [57]: 27.9 µM
- TGI [34]: 33.5 µM
- TGI [35]: 34.1 µM
- TGI [36]: > 100 µM
- TGI [37]: 28.5 µM
- TGI [38]: 25.6 µM
- TGI [39]: 32.9 µM
- TGI [40]: 28.2 µM
- TGI [58]: 31.4 µM
- TGI [41]: 25.4 µM
- TGI [42]: 26.6 µM
- TGI [43]: 23.4 µM
- TGI [44]: 31.6 µM
- TGI [45]: 26.2 µM
- TGI [47]: 36.2 µM
- TGI [48]: 30.5 µM
- TGI [49]: 9.86 µM
- TGI [50]: > 100 µM

SMILES: CCOC(=O)C1=C(C)N(NC(N)=O)C(C)(O)C12CCOC2=O (stereo unspecified)
- TGI [1]: > 100 µM
- TGI [2]: 34.5 µM
- TGI [3]: > 100 µM
- TGI [4]: > 100 µM
- TGI [51]: > 100 µM
- TGI [52]: > 100 µM
- TGI [5]: > 100 µM
- TGI [7]: > 100 µM
- TGI [53]: > 100 µM
- TGI [9]: > 100 µM
- TGI [10]: > 100 µM
- TGI [12]: > 100 µM
- TGI [13]: > 100 µM
- TGI [14]: > 100 µM
- TGI [15]: > 100 µM
- TGI [16]: > 100 µM
- TGI [17]: > 100 µM
- TGI [18]: > 100 µM
- TGI [55]: > 100 µM
- TGI [19]: > 100 µM
- TGI [20]: > 100 µM
- TGI [21]: > 100 µM
- TGI [22]: > 100 µM
- TGI [23]: > 100 µM
- TGI [24]: > 100 µM
- TGI [25]: > 100 µM
- TGI [26]: > 100 µM
- TGI [27]: > 100 µM
- TGI [56]: > 100 µM
- TGI [29]: > 100 µM
- TGI [30]: > 100 µM
- TGI [31]: > 100 µM
- TGI [32]: > 100 µM
- TGI [33]: > 100 µM
- TGI [57]: > 100 µM
- TGI [34]: > 100 µM
- TGI [36]: > 100 µM
- TGI [37]: > 100 µM
- TGI [38]: > 100 µM
- TGI [39]: > 100 µM
- TGI [40]: > 100 µM
- TGI [58]: > 100 µM
- TGI [41]: > 100 µM
- TGI [42]: > 100 µM
- TGI [43]: > 100 µM
- TGI [44]: > 100 µM
- TGI [46]: > 100 µM
- TGI [59]: > 100 µM
- TGI [47]: > 100 µM
- TGI [49]: > 100 µM
- TGI [50]: > 100 µM
